Patent US10456414B2, “Methods for treating HCV” (priority 2011, dated 2019)
Where “and” joins values, the source holds several entries; their conditions need not be identical. Identical values can stand only once. Like-named read-outs stand apart in the source and are kept apart here. Marks after values point to notes of the source that are not given here.

Columns and labels:
[1] = tested on: HCV genotype 1a replicon; assay: HCV genotype 1a replicon assay, EC50 (Biological Example 3); type: cell-based; conditions: 3 days
[2] = tested on: Huh-7 cells carrying a HCV genotype 1a replicon; assay: HCV genotype 1a replicon assay, CC50 by calcein AM (Biological Example 3); type: cell-based; conditions: genotype 1a replicon cells, 3 days
Procedure: The CC50 assay was performed first.

[3] = Drug-drug interactions of co-administered compounds (exposure); type: in vivo
Procedure: With respect to Compounds 9 and 10, or pharmaceutically acceptable salts thereof, the composition may comprise 10 mg to 1000 mg per day (according to US 2010/0298257). With respect to Compound 11, or pharmaceutically acceptable salts thereof, the composition may comprise 1 mg to 1000 mg per day (according to US 2010/0081628).

[4] = tested on: HCV 1b replicon system (Huh-luc); assay: Antiviral combination studies with Compound 6, MacSynergy II; conditions: for Antagonism Volume / Synergy Volume: in combination with Compound 6, mean ± standard deviation; for Interaction: in combination with Compound 6
[5] = tested on: 1b Huh-luc replicon cells; assay: Antiviral combination studies with Compound 5, MacSynergy II; type: cell-based, HCV; conditions: for Antagonism Volume / Synergy Volume: in combination with Compound 5, mean ± standard deviation; for Interaction: in combination with Compound 5
Procedure: Combination data were analyzed based on the Bliss Independence model using MacSynergy II software. Results of the combination assays were expressed as mean synergy and antagonism volumes (nM^2) calculated at 95% confidence from two independent experiments performed in triplicate.

[6] = tested on: Genotype 1 b replicon cells; assay: Compound combination replicon cure assay, colony formation; conditions: 6 days treatment at the same concentrations, then G418 for 14 days
[7] = tested on: Huh-7 cells carrying a HCV genotype 1a replicon; assay: Cytotoxicity combination studies with Compound 4, MacSynergy II; conditions: for Antagonism Volume (cytotoxicity) / Synergy Volume (cytotoxicity): in combination with Compound 4, mean ± standard deviation
[8] = tested on: genotype 1b replicon RNA; assay: Replicon RNA suppression, 6 day assay, QRT-PCR
[9] = HCV genotype 1a replicon assay, CC50 by calcein AM (Biological Example 8); conditions: human, Huh-7 cells carrying an HCV genotype 1a replicon
[10] = tested on: HCV genotype 1a replicon; assay: Antiviral combination studies with Compound 4, MacSynergy II; conditions: for Antagonism Volume / Synergy Volume: in combination with Compound 4, mean ± standard deviation; for Interaction: in combination with Compound 4
[11] = tested on: Huh-7 cells carrying an HCV genotype 1a replicon
[12] = tested on: HCV genotype 1a replicon; assay: Antiviral combination studies with Compound 10, MacSynergy II; conditions: in combination with Compound 10
[13] = tested on: HCV genotype 1a replicon; assay: HCV genotype 1a replicon assay, EC50 (Biological Example 8); conditions: Hepatitis C virus, 72 h
[14] = tested on: GT2a wild-type replicon; assay: microbe, parasite or virus in culture; type: cell-based, HCV; conditions: Hepatitis C virus, 72 h, 3 days
[15] = tested on: GT2b wild-type chimeric replicon (2b NS5B in GT1b backbone); assay: microbe, parasite or virus in culture; type: cell-based, HCV; conditions: Hepatitis C virus, 72 h, read-out: EC50 WT
[16] = tested on: GT3a NS5B S282T mutant chimeric replicon; assay: microbe, parasite or virus in culture; type: cell-based, HCV; conditions: Hepatitis C virus, GT3A, 72 h, read-out: EC50 S282T
[17] = tested on: GT1b wild-type replicon; assay: microbe, parasite or virus in culture; type: cell-based, HCV; conditions: Hepatitis C virus, 72 h, 3 days
[18] = tested on: GT2b NS5B S282T mutant chimeric replicon; assay: microbe, parasite or virus in culture; type: cell-based, HCV; conditions: Hepatitis C virus, GT2B, 72 h, read-out: EC50 S282T
[19] = tested on: GT4a wild-type chimeric replicon (4a NS5B in GT1b backbone); assay: microbe, parasite or virus in culture; type: cell-based, HCV; conditions: Hepatitis C virus, 72 h, read-out: EC50 WT
[20] = tested on: GT2a NS5B S282T mutant replicon; assay: microbe, parasite or virus in culture; type: cell-based, HCV; conditions: Hepatitis C virus, GT2A, 72 h, read-out: EC50 S282T
[21] = tested on: GT4a NS5B S282T mutant chimeric replicon; assay: microbe, parasite or virus in culture; type: cell-based, HCV; conditions: Hepatitis C virus, GT4A, 72 h, read-out: EC50 S282T
[22] = human, dose of 800 mg/day; cited from earlier work
[23] = tested on: GT1b NS5B S282T mutant replicon; assay: microbe, parasite or virus in culture; type: cell-based, HCV; conditions: Hepatitis C virus, GT1B, 72 h, read-out: EC50 S282T
[24] = tested on: GT3a wild-type chimeric replicon (3a NS5B in GT1b backbone); assay: microbe, parasite or virus in culture; type: cell-based, HCV; conditions: Hepatitis C virus, 72 h, read-out: EC50 WT
[25] = Hepatitis C virus, 72 h, average ± standard deviation, read-out: EC50
[26] = single compound at the listed concentration, 6 days, relative to DMSO control (Table XIV)

| Molecule | EC50 [1, 25] [nM] | CC50 ([2]; read-out: CC50) [nM] | Antagonism Volume [4] [nM^2] | Synergy Volume [4] | Antagonism Volume [5] [nM^2] | Synergy Volume [5] [nM^2] | Interaction (cytotoxicity) ([7]; in combination with Compound 4) | Antagonism Volume (cytotoxicity) [7] [nM^2%] | Synergy Volume (cytotoxicity) [7] [nM^2%] | CC50 at 3 days [9] [nM] | Antagonism Volume [10] | Synergy Volume [10] [nM^2%] | Interaction [4] | also measured |
| --- | --- | --- | --- | --- | --- | --- | --- | --- | --- | --- | --- | --- | --- | --- |
| Fc1ccccc1-c1nc2ccn(Cc3ccc(-c4ccc(C(F)(F)F)cc4C(F)(F)F)nn3)cc-2n1 [Compound 1, 5-((6-(2,4-bis(trifluoromethyl)phenyl)pyridazin-3-yl)methyl)-2-(2-fluorophenyl)-5H-imidazo[4,5-c]pyridine] | 19 ± 8 | > 44400 | −17 ± 0.7 | 34 nM^2 and 34 ± 9.9 nM^2 | 0 ± 0 | 70 ± 26 | Additivity (Additivity: ≤25 and >−25 nM^2%) | 0 ± 1 | 13 ± 11 | > 44400 | −1 ± 2 nM^2% | 34 ± 26 | – | increase of exposure of Compound 1 by Compound 2 ([3]; co-administered with Compound 2): 2-3 ×; effect on drug metabolizing systems ([3]; in vivo): does not appear that Compound 1 affects drug metabolizing systems; Uncured colony number [6]: 657; Replicon RNA log drop [8]: −1.0 log; Replicon RNA log drop [8, 26]: −1.0 log |
| COc1ccc2c(O[C@@H]3C[C@H]4C(=O)N[C@]5(P(=O)(O)Cc6c(F)cccc6F)C[C@H]5CCCCCCC[C@H](NC(=O)OC5CCCC5)C(=O)N4C3)cc(-c3csc(NC(C)C)n3)nc2c1Cl [Compound 2, (2R,6S,13aR,14aS,16aS)-2-(8-chloro-2-(2-(isopropylamino)thiazol-4-yl)-7-methoxyquinolin-4-yloxy)-6-(cyclopentyloxycarbonylamino)-5,16-dioxooctadecahydrocyclopropa[e]pyrrolo[1,2-a][1,4]diazacyclopentadecin-14a-yl(2,6-diflurobenzyl)phosphinic acid] | 496 ± 135 | > 22200 | −0.7 ± 0.7 | 52 nM^2 and 52 ± 5.1 nM^2 | −7 ± 7 | 22 ± 12 | Additivity (Additivity: ≤25 and >−25 nM^2%) | 0 ± 0 | 17 ± 14 | – | −2 ± 3 nM^2% | 22 ± 14 | Moderate Synergy | Interaction [5]: Additive; Interaction [10]: Additivity (Additivity: ≤25 and >−25 nM^2%) |
| CC(C)OC(=O)[C@H](C)N[P@](=O)(OC[C@H]1O[C@@](C#N)(c2ccc3c(N)ncnn23)[C@](C)(O)[C@@H]1OC(=O)C(C)C)Oc1ccccc1 [Compound 4] | 201 ± 74 | – | – | – | −1 ± 3 | 26 ± 28 | – | – | – | – | – | – | – | Uncured colony number [6]: 1054; Interaction (cytotoxicity) ([7]; in combination with Ribavirin (Table IX)): Additivity (Additivity: ≤25 and >−25 nM^2%); Compound concentration able to induce replicon RNA 1-1.5 log drop in a 6 day assay ([8]; genotype 1b replicon cells, 6 days): 1000 nM; Replicon RNA log drop [8, 26]: −1.2 log |
| CC1=CC[C@H](C(=O)N(c2cc(C#CC(C)(C)C)sc2C(=O)O)[C@H]2CC[C@](O)(CO[C@H]3CCOC3)CC2)CC1 [Compound 5, 5-(3,3-dimethylbut-1-yn-1-yl)-3-[(cis-4-hydroxy-4-{[(3S)-tetrahydrofuran-3-yloxy]methyl}cyclohexyl){[(1R)-4-methylcyclohex-3-en-1-yl]carbonyl}amino]thiophene-2-carboxylic acid] | 15 ± 2.4 | > 44400 | – | – | – | – | Additivity (Additivity: ≤25 and >−25 nM^2%) | −10 ± 7 | 15 ± 8 | > 44400 | −1 ± 3 nM^2% | 26 ± 28 | – | Cytotoxicity at Highest Concentration of Compound Combinations (% inhibition on cell growth) ([11]; with 320 nM Compound 10 and the highest concentration of the listed compound): 4.3 ± 2.9%; Interaction [12]: Additive; EC50 [13]: 14 nM |
| CC(C)C(=O)OCC1O[C@@H](n2ccc(N)nc2=O)[C@](C)(F)[C@@H]1OC(=O)C(C)C (stereo partly shown) [Compound 7] | – | – | −0.2 ± 0.1 | 51 nM^2 and 51 ± 7.8 nM^2 | – | – | – | – | – | – | – | – | Moderate Synergy | – |
| NC(=O)c1ncn([C@@H]2O[C@H](CO)[C@@H](O)[C@H]2O)n1 [Ribavirin, 1-β-D-ribofuranosyl-1H-1,2,4-Triazole-3-carboxamide, reference compound] | 36500 ± 17500 | > 88800 | −0.5 ± 0.1 | 61 nM^2 and 61 ± 0.5 nM^2 | −12 ± 9 | 12 ± 8 | – | – | – | > 88800 | −43 nM^2% and −43 ± 20 nM^2% | 1 ± 1 | Moderate Synergy | EC50 [14]: 8.3 nM; EC50 [15]: 2.6 nM; EC50 [16]: 1 nM; cell viability ([11]; combined with Compound 10, highest combined concentrations tested): greater than 85%; EC50 [17]: 6.6 nM; EC50 [18]: 0.6 nM; EC50 [19]: 6.2 nM; Interaction [5]: Additive; EC50 [20]: 0.6 nM; Interaction [12]: Minor; EC50 [21]: 0.6 nM; EC50 [13]: 33600 nM; steady-state plasma concentration [22]: 6 to 11 µM; EC50 [23]: 1.6 nM; EC50 [24]: 6.7 nM |
| IFN-α | – | – | 0.0 ± 0.0 | 32 nM^2 and 32 ± 1.4 nM^2 | – | – | Additivity (Additivity: ≤25 and >−25 nM^2%) | −7 ± 13 | 8 ± 12 | – | 0 ± 0 nM^2% | 12 ± 6 | Minor Synergy | EC50 ([1]; IFN-α in Units per milliliter): 1.4 ± 0.3^b U/mL; CC50 ([2]; IFN-α in Units per milliliter): >50^b U/mL; Interaction [10]: Additivity (Additivity: ≤25 and >−25 nM^2%) |
